The values below come from patent publication US11007177B2, “Compositions comprising a combination of a substituted flavonoid and a substituted indole for treating ocular diseases” (University of Macau, priority 2015, dated 2021).

The experiment has as its system TSP-1 null mice. The experiment can be described thus: Corneal fluorescein staining in murine model of Sjögren's syndrome. Type of experiment: in vivo. The conditions noted are these: 5 μL eye drops twice daily, 30 μM quercetin and/or 0.5 μM I3O in PBS. On the procedure: Mice. Thrombospondin (TSP)-1 null mice (C57BL/6 background), were bred in-house in a pathogen-free facility at Boston University School of Medicine, Boston, Mass. All experiments were conducted in accordance with institutional guidelines and ARVO Statement of the Use of Animals in Ophthalmic and Vision Research.
Corneal Fluorescein Staining. Sodium fluorescein (1%), 1 μl was applied to the cornea of mice under anesthesia. Three minutes later, eyes were flushed with PBS to remove excess fluorescein, and corneal staining was evaluated and photographed with a slit lamp biomicroscope (Humphrey-Zeiss, Dublin, Calif.) using a cobalt blue light. Punctate staining was recorded using a standardized National Eye Institute grading system of 0 to 3 for each of the five areas of the cornea (Lemp, 1995, CLAO J. 21:221-232).
TSP-1 deficient (null) mice (12 wk old) were treated with eyedrops twice daily for a period of two weeks. The 5 μL eye drops were either PBS as a control or 0.5 μM I3O and 30 μM quercetin in PBS, 0.5 μM I3O alone in PBS, or 30 μM quercetin alone in PBS. […] Clinical signs of dry eye disease, including effect on the corneal surface and peroxidase levels in tears, were measured at baseline (prior to initiating treatment) and at the end of week 1 and effect on the corneal surface was assayed again at the end of week 2. […]

As to `O=C1Nc2ccccc2/C1=C1/Nc2ccccc2/C1=N\O` [Heterodimer I3O, indirubin-3′-oxime], where the note is “week 2, FIG. 5”, the “corneal surface / corneal fluorescein score, week 2” value was “small improvement in corneal fluorescein score at week 2, but it was not significant”. Turning to `O=c1c(O)c(-c2ccc(O)c(O)c2)oc2cc(O)cc(O)c12` [quercetin], the “corneal surface / corneal fluorescein score, week 1” value (week 1, FIG. 5) was “significant improvement in the corneal surface”.
